Experimental findings from patent US8691865B2 (AbbVie Inc., priority 2008, dated 2014) are described below.

pIC50: −log10 of the molar value. Where only a bound is given, the exact number is not on record here.

The target in the first experiment is human Cav2.2 (Homo sapiens, UniProt Q00975). Description: Assessment of calcium channel activity using FLIPR (Ca2+ influx in IMR32 cells).
Chain of human Cav2.2 (Q00975 whole entry): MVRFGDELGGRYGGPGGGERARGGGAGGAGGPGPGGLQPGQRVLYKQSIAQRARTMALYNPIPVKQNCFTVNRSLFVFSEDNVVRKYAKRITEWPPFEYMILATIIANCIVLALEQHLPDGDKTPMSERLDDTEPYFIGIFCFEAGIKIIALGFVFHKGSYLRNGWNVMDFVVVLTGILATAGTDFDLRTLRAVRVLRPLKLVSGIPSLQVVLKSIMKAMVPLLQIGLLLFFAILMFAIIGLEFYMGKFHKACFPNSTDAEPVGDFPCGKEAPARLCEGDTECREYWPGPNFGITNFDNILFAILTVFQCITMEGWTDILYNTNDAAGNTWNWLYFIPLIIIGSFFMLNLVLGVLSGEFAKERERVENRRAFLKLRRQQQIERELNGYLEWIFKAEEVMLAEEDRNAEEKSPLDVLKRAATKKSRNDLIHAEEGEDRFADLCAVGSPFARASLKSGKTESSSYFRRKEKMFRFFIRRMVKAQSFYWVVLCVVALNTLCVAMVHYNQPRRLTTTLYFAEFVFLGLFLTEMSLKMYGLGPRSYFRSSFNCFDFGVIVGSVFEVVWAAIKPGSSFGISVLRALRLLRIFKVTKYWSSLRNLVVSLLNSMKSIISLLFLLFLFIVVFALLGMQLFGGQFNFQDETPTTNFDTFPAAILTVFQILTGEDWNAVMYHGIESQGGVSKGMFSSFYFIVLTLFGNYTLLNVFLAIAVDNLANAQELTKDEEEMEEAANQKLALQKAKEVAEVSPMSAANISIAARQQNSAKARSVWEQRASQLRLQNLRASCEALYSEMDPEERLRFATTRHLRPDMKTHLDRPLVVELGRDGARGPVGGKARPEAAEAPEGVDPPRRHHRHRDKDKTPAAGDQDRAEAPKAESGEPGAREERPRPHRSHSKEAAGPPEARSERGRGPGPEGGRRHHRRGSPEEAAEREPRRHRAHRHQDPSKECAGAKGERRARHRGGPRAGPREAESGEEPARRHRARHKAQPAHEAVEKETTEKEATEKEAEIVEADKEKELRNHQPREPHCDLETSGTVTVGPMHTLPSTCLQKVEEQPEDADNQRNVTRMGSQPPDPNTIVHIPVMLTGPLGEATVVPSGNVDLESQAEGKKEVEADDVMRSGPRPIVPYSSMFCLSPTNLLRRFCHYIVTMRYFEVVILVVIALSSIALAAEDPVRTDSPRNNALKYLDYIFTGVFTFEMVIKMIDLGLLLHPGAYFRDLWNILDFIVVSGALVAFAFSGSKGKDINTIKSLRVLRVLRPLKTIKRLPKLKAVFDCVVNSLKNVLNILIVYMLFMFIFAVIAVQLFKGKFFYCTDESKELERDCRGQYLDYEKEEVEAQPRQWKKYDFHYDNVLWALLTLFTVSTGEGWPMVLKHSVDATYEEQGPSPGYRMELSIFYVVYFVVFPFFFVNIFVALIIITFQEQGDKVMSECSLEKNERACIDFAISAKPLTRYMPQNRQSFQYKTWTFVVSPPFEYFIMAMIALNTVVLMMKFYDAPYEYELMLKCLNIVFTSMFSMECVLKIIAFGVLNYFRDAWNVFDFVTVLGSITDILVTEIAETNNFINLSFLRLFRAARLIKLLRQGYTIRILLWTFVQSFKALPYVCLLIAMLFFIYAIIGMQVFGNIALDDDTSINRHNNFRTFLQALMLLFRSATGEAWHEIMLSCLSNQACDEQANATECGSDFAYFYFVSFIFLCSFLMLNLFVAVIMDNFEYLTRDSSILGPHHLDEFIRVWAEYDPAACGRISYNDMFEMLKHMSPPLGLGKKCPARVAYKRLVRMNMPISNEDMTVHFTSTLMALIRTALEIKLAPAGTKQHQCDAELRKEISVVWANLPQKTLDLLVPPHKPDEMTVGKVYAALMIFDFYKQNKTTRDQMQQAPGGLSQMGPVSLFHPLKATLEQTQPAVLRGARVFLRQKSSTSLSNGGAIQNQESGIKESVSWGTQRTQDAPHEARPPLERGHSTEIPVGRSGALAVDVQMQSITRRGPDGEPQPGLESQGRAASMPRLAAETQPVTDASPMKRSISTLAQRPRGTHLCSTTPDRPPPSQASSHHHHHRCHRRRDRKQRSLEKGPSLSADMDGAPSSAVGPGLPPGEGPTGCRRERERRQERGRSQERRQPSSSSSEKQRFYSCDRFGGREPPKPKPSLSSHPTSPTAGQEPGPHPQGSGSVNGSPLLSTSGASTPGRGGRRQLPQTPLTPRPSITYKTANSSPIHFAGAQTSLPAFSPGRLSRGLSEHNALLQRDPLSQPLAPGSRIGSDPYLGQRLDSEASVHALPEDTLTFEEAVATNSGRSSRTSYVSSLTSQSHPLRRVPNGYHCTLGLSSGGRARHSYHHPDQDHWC
Chain of human Cav2.2 (P54289 25-956 partner limits assumed): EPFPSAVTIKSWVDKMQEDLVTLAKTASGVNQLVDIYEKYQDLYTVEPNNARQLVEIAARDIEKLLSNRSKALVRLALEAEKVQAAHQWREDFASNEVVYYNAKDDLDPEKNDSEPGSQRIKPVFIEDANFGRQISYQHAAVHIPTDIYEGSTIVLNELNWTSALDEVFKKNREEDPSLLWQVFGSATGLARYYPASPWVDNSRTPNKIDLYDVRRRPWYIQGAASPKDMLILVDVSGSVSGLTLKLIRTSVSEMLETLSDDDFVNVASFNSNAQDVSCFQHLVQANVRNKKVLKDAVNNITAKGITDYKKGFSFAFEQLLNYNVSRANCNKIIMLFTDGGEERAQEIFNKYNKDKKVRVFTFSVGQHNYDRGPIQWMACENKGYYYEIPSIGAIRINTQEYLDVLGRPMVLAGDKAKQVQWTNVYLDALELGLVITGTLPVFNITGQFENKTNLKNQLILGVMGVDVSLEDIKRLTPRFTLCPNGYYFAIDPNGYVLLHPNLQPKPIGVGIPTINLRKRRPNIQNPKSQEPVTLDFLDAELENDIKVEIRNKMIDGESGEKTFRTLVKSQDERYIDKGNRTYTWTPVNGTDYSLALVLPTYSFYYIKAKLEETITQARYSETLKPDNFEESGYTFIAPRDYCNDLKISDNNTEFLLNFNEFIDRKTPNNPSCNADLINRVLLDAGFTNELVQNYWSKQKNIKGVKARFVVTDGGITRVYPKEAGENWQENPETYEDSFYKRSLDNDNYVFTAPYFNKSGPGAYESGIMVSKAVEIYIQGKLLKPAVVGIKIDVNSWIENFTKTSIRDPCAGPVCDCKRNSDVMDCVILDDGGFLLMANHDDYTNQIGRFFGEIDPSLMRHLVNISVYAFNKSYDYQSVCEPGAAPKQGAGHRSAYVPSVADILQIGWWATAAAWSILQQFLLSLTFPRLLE
Chain of human Cav2.2 (P54289 957-1103 partner limits assumed): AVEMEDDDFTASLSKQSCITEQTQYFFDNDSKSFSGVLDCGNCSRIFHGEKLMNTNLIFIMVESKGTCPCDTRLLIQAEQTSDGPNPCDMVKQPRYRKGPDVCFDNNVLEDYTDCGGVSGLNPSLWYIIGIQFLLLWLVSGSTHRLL
Chain of human Cav2.2 (P54284 whole entry partner): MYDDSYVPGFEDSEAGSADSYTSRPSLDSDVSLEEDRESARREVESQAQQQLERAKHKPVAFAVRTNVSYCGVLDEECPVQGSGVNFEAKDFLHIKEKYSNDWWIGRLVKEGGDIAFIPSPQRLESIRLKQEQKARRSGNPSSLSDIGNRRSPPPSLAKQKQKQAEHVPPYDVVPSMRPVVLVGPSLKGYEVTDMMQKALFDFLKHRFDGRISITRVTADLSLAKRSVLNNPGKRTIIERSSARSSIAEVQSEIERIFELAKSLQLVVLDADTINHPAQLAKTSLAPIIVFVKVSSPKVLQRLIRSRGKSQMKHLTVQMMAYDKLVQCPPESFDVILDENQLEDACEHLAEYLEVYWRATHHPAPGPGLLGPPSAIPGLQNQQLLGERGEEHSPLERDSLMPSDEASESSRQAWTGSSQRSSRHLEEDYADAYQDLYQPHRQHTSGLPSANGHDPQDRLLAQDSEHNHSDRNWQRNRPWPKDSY
Conditions: not given
The experiment is classed as cell-based. An outline of the steps:
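IC50 values derive from nonlinear sigmoidal fitting of percent inhibition, relative to inhibitor-free activity, of Ca2+ influx read by FLIPR. Cells were IMR32 human neuroblastoma, plated at 1−1.2×10^5 per well and grown 48 h at 37 °C.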
As for `O=C(N[C@H]1CC[C@@H]2CN(c3cccc(C(F)(F)F)n3)C[C@@H]21)c1ccc2ccccc2n1` [Example 569, N-{(3aR,4S,6aS)-2-[6-(trifluoromethyl)pyridin-2-yl]octahydrocyclopenta[c]pyrrol-4-yl}quinoline-2-carboxamide], the pIC50 – broadly, the negative decadic logarithm of the IC50, by convention in mol/L – was 6.01.
In the case of `CC(C)(C)C[C@H](N)C(=O)N[C@H]1CC[C@@H]2CN(S(=O)(=O)c3cccc(C(F)(F)F)c3)C[C@@H]21` [Example 392, 4-methyl-N^1-((3aR,4S,6aS)-2-{[3-(trifluoromethyl)phenyl]sulfonyl}octahydrocyclopenta[c]pyrrol-4-yl)-L-leucinamide], the pIC50 is 6.02.
Still for that read-out and setting: the figure for `O=C(N[C@H]1CC[C@H]2CN(Cc3ccccc3)C[C@H]21)C(C1CCCCC1)C1CCCCC1` (relative stereo) [Example 11, N-[(3aS*,4S*,6aR*)-2-benzyloctahydrocyclopenta[c]pyrrol-4-yl]-2,2-dicyclohexylacetamide] is 5.33; for `CCCC(C(=O)NC1CCC2CN(Cc3ccc(F)cc3)CC21)N(C)C(=O)OC(C)(C)C` (single isomer, unassigned) [Example 318] it is 5.97; for `CN[C@@H](CC(C)C)C(=O)N[C@H]1CC[C@@H]2CN(c3ccccc3C(F)(F)F)C[C@@H]21` [Example 618, N^2-methyl-N-{(3aR,4S,6aS)-2-[2-(trifluoromethyl)phenyl]octahydrocyclopenta[c]pyrrol-4-yl}-L-leucinamide] it is 6.20.
On to `O=C(N[C@H]1CC[C@@H]2CN(c3cccc(C(F)(F)F)n3)C[C@@H]21)c1cc2ccccc2[nH]1` [Example 570, N-{(3aR,4S,6aS)-2-[6-(trifluoromethyl)pyridin-2-yl]octahydrocyclopenta[c]pyrrol-4-yl}-1H-indole-2-carboxamide], for which the pIC50 was 6.21.
As for `CC[C@H](C)[C@H](NC)C(=O)N[C@H]1CC[C@@H]2CN(Cc3ccccc3)C[C@@H]21` [Example 353, N^1-[(3aR,4S,6aS)-2-benzyloctahydrocyclopenta[c]pyrrol-4-yl]-N^2-methyl-L-isoleucinamide], the pIC50 is less than 4.52.
Turning to `CCC[C@H](NC)C(=O)N[C@H]1CC[C@@H]2CN(c3cccc(C(F)(F)F)n3)C[C@@H]21` [Example 588, N^2-methyl-N-{(3aR,4S,6aS)-2-[6-(trifluoromethyl)pyridin-2-yl]octahydrocyclopenta[c]pyrrol-4-yl}-L-norvalinamide], the pIC50 was 5.99.
As to `CC(C)C[C@H](NCC(C)(C)C)C(=O)N[C@H]1CC[C@@H]2CN(S(=O)(=O)c3ccc(F)cc3)C[C@@H]21` [Example 261, N^1-{(3aR,4S,6aS)-2-[(4-fluorophenyl)sulfonyl]octahydrocyclopenta[c]pyrrol-4-yl}-N^2-neopentyl-L-leucinamide], the pIC50 was 5.90.
For `COc1ccccc1N1C[C@H]2CC[C@H](NC(=O)[C@@H]3C[C@@H](F)CN3)[C@H]2C1` [Example 662, (4R)-4-fluoro-N-[(3aR,4S,6aS)-2-(2-methoxyphenyl)octahydrocyclopenta[c]pyrrol-4-yl]-L-prolinamide], the pIC50 was less than 4.52.
With `O=C(N[C@H]1CC[C@@H]2CN(c3ccc(Cl)cc3)C[C@@H]21)[C@@H]1C[C@@H](F)CN1` [Example 644, (4R)-N-[(3aR,4S,6aS)-2-(4-chlorophenyl)octahydrocyclopenta[c]pyrrol-4-yl]-4-fluoro-L-prolinamide], the pIC50 is 5.07.
As to `FC(F)(F)c1cccc(N2C[C@H]3CC[C@H](NCc4ncc[nH]4)[C@H]3C2)n1` [Example 675, (3aR,4S,6aS)-N-(1H-imidazol-2-ylmethyl)-2-[6-(trifluoromethyl)pyridin-2-yl]octahydrocyclopenta[c]pyrrol-4-amine], the pIC50 is 5.65.
Same read-out and setting: under `Cn1c(CN[C@H]2CC[C@@H]3CN(c4cccc(C(F)(F)F)n4)C[C@@H]32)cc2ccccc21` [Example 720, (3aR,4S,6aS)-N-[(1-methyl-1H-indol-2-yl)methyl]-2-[6-(trifluoromethyl)pyridin-2-yl]octahydrocyclopenta[c]pyrrol-4-amine] stands 5.84; under `O=C(N[C@H]1CC[C@@H]2CN(c3cccc(C(F)(F)F)n3)C[C@@H]21)[C@@H]1CC(F)(F)CN1` [Example 595, 4,4-difluoro-N-{(3aR,4S,6aS)-2-[6-(trifluoromethyl)pyridin-2-yl]octahydrocyclopenta[c]pyrrol-4-yl}-L-prolinamide], 5.66.

The experiment is the same for the next values; noted with them: read-out: IC50 (μM) or percent inhibition (* indicates 3 minute incubation, otherwise 60 minute); IC50; 60 minute pre-incubation with compound; IMR32 cells, 80 mM KCl depolarization.
With `CN[C@@H](CC(C)(C)C)C(=O)N(C)[C@H]1CC[C@@H]2CN(S(=O)(=O)c3ccc(C(F)(F)F)cc3Cl)C[C@@H]21` [Example 439, N^1-((3aR,4S,6aS)-2-{[2-chloro-4-(trifluoromethyl)phenyl]sulfonyl}octahydrocyclopenta[c]pyrrol-4-yl)-N^1,N^2,4-trimethyl-L-leucinamide], the IC50 (commonly the concentration needed to halve the response being measured) stood at 1.42 µM.
Regarding `O=C(CC(c1ccc(F)cc1)c1ccc(F)cc1)N[C@@H]1CC[C@H]2CN(Cc3cccc(C(F)(F)F)c3)C[C@H]21` (relative stereo) [Example 143, 3,3-bis(4-fluorophenyl)-N-{(3aS*,4R*,6aR*)-2-[3-(trifluoromethyl)benzyl]octahydrocyclopenta[c]pyrrol-4-yl}propanamide], the IC50 worked out at 0.61 µM.
Still for that read-out and setting: under `CC(C)N[C@H]1CC[C@@H]2CN(S(=O)(=O)c3ccc(C(F)(F)F)cc3Cl)C[C@@H]21` [Example 284, (3aR,4S,6aS)-2-{[2-chloro-4-(trifluoromethyl)phenyl]sulfonyl}-N-isopropyloctahydrocyclopenta[c]pyrrol-4-amine] stands 3.7 µM; under `O=C(CCCC(c1ccc(F)cc1)c1ccc(F)cc1)N[C@@H]1CC[C@H]2CN(Cc3cccc(C(F)(F)F)c3)C[C@H]21` (relative stereo) [Example 142, 5,5-bis(4-fluorophenyl)-N-{(3aS*,4R*,6aR*)-2-[3-(trifluoromethyl)benzyl]octahydrocyclopenta[c]pyrrol-4-yl}pentanamide], 0.86 µM; under “N-methyl-N-((3aR,4S,6aS)-2-{[3-(trifluoromethyl)phenyl]sulfonyl}octahydrocyclopenta[c]pyrrol-4-yl)-L-phenylalaninamide [Example 386]”, 1.62 µM.
Same read-out and setting: the figure for `CN[C@@H](CC(C)C)C(=O)N[C@@H]1CC[C@H]2CN(S(=O)(=O)c3ccc(C(F)(F)F)cc3)C[C@H]21` [Example 183, N^2-methyl-N^1-((3aS,4R,6aR)-2-{[4-(trifluoromethyl)phenyl]sulfonyl}octahydrocyclopenta[c]pyrrol-4-yl)-L-leucinamide] is 1.41 µM; for `CC(C)C(C(=O)N[C@H]1CC[C@@H]2CN(Cc3cccc(F)c3)C[C@@H]21)c1ccccc1` (stereo partly drawn) [Example 87, N-[(3aR,4S,6aS)-2-(3-fluorobenzyl)octahydrocyclopenta[c]pyrrol-4-yl]-3-methyl-2-phenylbutanamide] it is 3.14 µM.
Consider `O=C(N[C@@H]1CC[C@H]2CN(Cc3ccc(C(F)(F)F)c(F)c3)C[C@H]21)C(C1CCCCC1)C1CCCCC1` [Example 76, 2,2-dicyclohexyl-N-{(3aS,4R,6aR)-2-[3-fluoro-4-(trifluoromethyl)benzyl]octahydrocyclopenta[c]pyrrol-4-yl}acetamide], for which the IC50 was determined as 5.67 µM.
`O=C(N[C@@H]1CC[C@H]2CN(Cc3ccccc3)C[C@H]21)C(c1ccccc1)C1CCCC1` (relative stereo) [Example 8, N-[(3aS*,4R*,6aR*)-2-benzyloctahydrocyclopenta[c]pyrrol-4-yl]-2-cyclopentyl-2-phenylacetamide]: the IC50 was determined as 1.07 µM.
